Test results reported in US11285156B2, “Substituted piperazines as KRAS G12C inhibitors” (Amgen Inc., priority 2018, dated 2022).
Where two headings read alike, the source gives them in different places.

Tests used:
[1] = target: GDP-bound KRAS protein (aa 1-169), containing both G12C and C118A amino acid substitutions (Homo sapiens (Human), UniProt P01116, C118A/G12C); experiment: Coupled nucleotide exchange assay (SOS-mediated nucleotide exchange, AlphaScreen); assay type: biochemical; conditions: read-out: Coupled exchange IC50 (5 min; μM); 5 min compound pre-incubation
Experimental: Coupled Nucleotide Exchange Assay:
Following compound pre-incubation, purified SOS protein (aa 564-1049) and GTP (Roche 10106399001) were added to the assay wells and incubated for an additional 30 min (for 5 min compound pre-incubation) or 1 hour (for 2 hour compound pre-incubation). […] The assay plates were then read on a PerkinElmer EnVision Multilabel Reader, using AlphaScreen® technology, and data were analyzed using a 4-parameter logistic model to calculate IC50 values.

[2] = system: Phosphorylation of ERK1/2 in MIA PaCa-2 cells; experiment: Phospho-ERK1/2 MSD assay in MIA PaCa-2 cells; assay type: cell-based; conditions: read-out: p-ERK IC50 (2 h, MiaPaCa-2; μM), 2 h compound treatment, MIA PaCa-2 cells, EGF stimulated
Method in brief: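 Phospho-ERK1/2 measured by MSD electrochemiluminescence kit in RIPA lysates of MIA PaCa-2 cells. Cells were treated with compound titrations for 2 or 4 h at 37 °C, 5% CO2, followed by a 10 min pulse of 10 ng/mL EGF.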

[3] = system: Phosphorylation of ERK1/2 in A549 cells; experiment: Phospho-ERK1/2 MSD assay in A549 cells; assay type: cell-based; conditions: read-out: p-ERK IC50 (2 h, A549; μM), 2 h compound treatment, A549 cells, EGF stimulated
Method in brief: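 Dose-response treatment lasted 2 or 4 h in RPMI 1640/10% FBS at 37 °C. EGF-stimulated (10 ng/mL, 10 min) ERK1/2 phosphorylation was then quantified in cell lysates with a Meso Scale Discovery phospho-ERK1/2 assay.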

Chain of GDP-bound KRAS protein (aa 1-169), containing both G12C and C118A amino acid substitutions (P01116 other isoform, or with tags, fused parts or gaps G12C/C118A): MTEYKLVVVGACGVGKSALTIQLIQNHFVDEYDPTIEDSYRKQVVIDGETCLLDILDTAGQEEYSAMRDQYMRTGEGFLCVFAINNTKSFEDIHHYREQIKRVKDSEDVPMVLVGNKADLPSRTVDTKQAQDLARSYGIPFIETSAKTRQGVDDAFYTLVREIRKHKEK

Structure (SMILES) | IC50 [1] | IC50 ([2]; Homo sapiens, MIA PaCa-2, 2 h) | IC50 ([3]; Homo sapiens, A549, 2 h) | IC50 [2] | IC50 [3]
C=CC(=O)N1C[C@H](C)N(c2nc(=O)n(C)c3nc(-c4ccccc4F)c(Cl)cc23)C[C@H]1C [Example 55-59, 6-Chloro-4-[(2S,5R)-2,5-dimethyl-4-prop-2-enoyl-piperazin-1-yl]-7-(2-fluorophenyl)-1-methyl-pyrido[2,3-d]pyrimidin-2-one] | 174 µM | 10 µM | > 7.5 µM |  | 
C=CC(=O)N1C[C@H](C)N(c2nc(=O)n(C(C)C)c3nc(-c4ccccc4F)c(Cl)cc23)C[C@H]1C [Example 55-60, 6-Chloro-4-[(2S,5R)-2,5-dimethyl-4-prop-2-enoyl-piperazin-1-yl]-7-(2-fluorophenyl)-1-isopropyl-pyrido[2,3-d]pyrimidin-2-one] | 7.85 µM | 7.77 µM | > 7.5 µM |  | 
C=CC(=O)N1C[C@H](C)N(c2nc(=O)n(-c3c(CN4CCCC4)cccc3C(C)C)c3nc(-c4ccccc4F)c(Cl)cc23)C[C@H]1C [Example 80-10, 6-Chloro-4-[(2S,5R)-2,5-dimethyl-4-prop-2-enoyl-piperazin-1-yl]-7-(2-fluorophenyl)-1-[2-isopropyl-6-(pyrrolidin-1-ylmethyl)phenyl]pyrido[2,3-d]pyrimidin-2-one] | 0.077 µM | 0.063 µM | > 7.5 µM |  | 
C=CC(=O)N1C[C@H](C)N(c2nc(=O)n(-c3c(CN4CC(F)(F)C4)cccc3C(C)C)c3nc(-c4ccccc4F)c(Cl)cc23)C[C@H]1C [Example 80-11, 6-chloro-1-[2-[(3,3-difluoroazetidin-1-yl)methyl]-6-isopropyl-phenyl]-4-[(2S,5R)-2,5-dimethyl-4-prop-2-enoyl-piperazin-1-yl]-7-(2-fluorophenyl)pyrido[2,3-d]pyrimidin-2-one] | 0.078 µM | 0.222 µM | > 7.5 µM |  | 
C=CC(=O)N1C[C@H](C)N(c2nc(=O)n(-c3c(CN4CCC4)cccc3C(C)C)c3nc(-c4ccccc4F)c(Cl)cc23)C[C@H]1C [Example 80-12, 1-[2-(azetidin-1-ylmethyl)-6-isopropyl-phenyl]-6-chloro-4-[(2S,5R)-2,5-dimethyl-4-prop-2-enoyl-piperazin-1-yl]-7-(2-fluorophenyl)pyrido[2,3-d]pyrimidin-2-one] | 0.064 µM | 0.074 µM | > 7.5 µM |  | 
C=CC(=O)N1CCN(c2nc(=O)n(-c3c(CN(C)C)cccc3C(C)C)c3nc(-c4ccccc4F)c(Cl)cc23)[C@@H](C)C1 [Example 80-13, 6-Chloro-1-[2-[(dimethylamino)methyl]-6-isopropyl-phenyl]-7-(2-fluorophenyl)-4-[(2S)-2-methyl-4-prop-2-enoyl-piperazin-1-yl]pyrido[2,3-d]pyrimidin-2-one] | 0.043 µM | 0.053 µM | > 7.5 µM |  | 
C=CC(=O)N1C[C@H](C)N(c2nc(=O)n(-c3c(C)cc(CN(C)C)cc3C(C)C)c3nc(-c4ccccc4F)c(F)cc23)C[C@H]1C [Example 80-20, 1-[4-[(Dimethylamino)methyl]-2-isopropyl-6-methyl-phenyl]-4-[(2S,5R)-2,5-dimethyl-4-prop-2-enoyl-piperazin-1-yl]-6-fluoro-7-(2-fluorophenyl)pyrido[2,3-d]pyrimidin-2-one] | 0.763 µM |  | > 7.5 µM | 0.735 µM | 
C=CC(=O)N1C[C@H](C)N(c2nc(=O)n(-c3c(C)cc(CN(C)C)cc3C(C)C)c3nc(-c4c(O)cccc4F)c(F)cc23)C[C@H]1C [Example 80-21, 1-[4-[(Dimethylamino)methyl]-2-isopropyl-6-methyl-phenyl]-4-[(2S,5R)-2,5-dimethyl-4-prop-2-enoyl-piperazin-1-yl]-6-fluoro-7-(2-fluoro-6-hydroxy-phenyl)pyrido[2,3-d]pyrimidin-2-one] | 0.25 µM | 0.138 µM | > 7.5 µM |  | 
C=CC(=O)N1C[C@H](C)N(c2nc(=O)n(-c3c(C(C)C)cnn3C(C)C)c3nc(-c4ccccc4F)c(Cl)cc23)C[C@H]1C [Example 100-1, 6-Chloro-1-(2,4-diisopropylpyrazol-3-yl)-4-[(2S,5R)-2,5-dimethyl-4-prop-2-enoyl-piperazin-1-yl]-7-(2-fluorophenyl)pyrido[2,3-d]pyrimidin-2-one] | 0.084 µM | 0.123 µM | > 7.5 µM |  | 
C=CC(=O)N1C[C@H](C)N(c2nc(=O)n(-c3c(C(C)C)ncnc3C(C)C)c3nc(-c4ccc(C#N)cc4F)c(Cl)cc23)C[C@H]1C [Example 100-2, 4-[6-Chloro-1-(4,6-diisopropylpyrimidin-5-yl)-4-[(2S,5R)-2,5-dimethyl-4-prop-2-enoyl-piperazin-1-yl]-2-oxo-pyrido[2,3-d]pyrimidin-7-yl]-3-fluoro-benzonitrile] | 0.324 µM | 0.298 µM | > 7.5 µM |  | 
C=CC(=O)N1C[C@H](C)N(c2nc(=O)n(-c3c(C(C)C)ncnc3C(C)C)c3nc(-c4ccccc4C(C)C)c(Cl)cc23)C[C@H]1C [Example 100-4, 6-Chloro-1-(4,6-diisopropylpyrimidin-5-yl)-4-[(2S,5R)-2,5-dimethyl-4-prop-2-enoyl-piperazin-1-yl]-7-(2-isopropylphenyl) pyrido[2,3-d]pyrimidin-2-one] | 0.006 µM | 0.106 µM | > 7.5 µM |  | 
C=CC(=O)N1C[C@H](C)N(c2nc(=O)n(-c3c(C(C)C)cncc3C(C)C)c3nc(-c4c(O)cccc4F)c(F)cc23)C[C@H]1C [Example 101-1, 1-(3,5-Diisopropyl-4-pyridyl)-4-[(2S,5R)-2,5-dimethyl-4-prop-2-enoyl-piperazin-1-y]-6-fluoro-7-(2-fluoro-6-hydroxy-phenyl)pyrido[2,3-d]pyrimidin-2-one] | 0.134 µM |  |  | 0.116 µM | > 7.5 µM
C=CC(=O)N1C[C@H](C)N(c2nc(=O)n(-c3c(C(C)C)ncnc3C(C)C)c3nc(-c4ccccc4F)c(F)cc23)C[C@H]1C [Example 101-2, 1-(4,6-Diisopropylpyrimidin-5-yl)-4-[(2S,5R)-2,5-dimethyl-4-prop-2-enoyl-piperazin-1-yl]-6-fluoro-7-(2-fluorophenyl)pyrido [2,3-d]pyrimidin-2-one] | 0.16 µM | 0.116 µM | > 7.5 µM |  | 
C=CC(=O)N1C[C@@H](C)N(c2nc(=O)n(-c3c(C(C)C)ncnc3C(C)C)c3nc(-c4ccccc4F)c(F)cc23)[C@@H](C)C1 [Example 101-3, 1-(4,6-Diisopropylpyrimidin-5-yl)-4-[(2R,6S)-2,6-dimethyl-4-prop-2-enoyl-piperazin-1-yl]-6-fluoro-7-(2-fluorophenyl)pyrido [2,3-d]pyrimidin-2-one] | 0.195 µM | 0.208 µM | > 7.5 µM |  | 
C=CC(=O)N1C[C@H](C)N(c2nc(=O)n(-c3c(Cl)ncnc3C(C)C)c3nc(-c4ccccc4F)c(Cl)cc23)C[C@H]1C [Example 102-5, 6-Chloro-1-(4-chloro-6-isopropyl-pyrimidin-5-yl)-4-[(2S,5R)-2,5-dimethyl-4-prop-2-enoyl-piperazin-1-yl]-7-(2-fluorophenyl) pyrido[2,3-d]pyrimidin-2-one] | 0.071 µM |  | > 7.5 µM | 0.084 µM | 
C=CC(=O)N1C[C@H](C)N(c2nc(=O)n(-c3c(Cl)ncnc3C(C)C)c3nc(-c4ccccc4C)c(Cl)cc23)C[C@H]1C [Example 102-6, 6-Chloro-1-(4-chloro-6-isopropyl-pyrimidin-5-yl)-4-[(2S,5R)-2,5-dimethyl-4-prop-2-enoyl-piperazin-1-yl]-7-(o-tolyl)pyrido[2,3-d]pyrimidin-2-one] | 0.066 µM | 0.063 µM | > 7.5 µM |  | 
